In US11174245B2, “Benzimidazole compounds and derivatives as EGFR inhibitors” (Boehringer Ingelheim International GmbH, priority 2018, dated 2021):

target: EGFR del19 T790M C797S protein in Ba/F3 cells (Homo sapiens, UniProt P00533, C797S/DEL746-750/T790M); assay: pEGFR assay (AlphaScreen Surefire, EGFR Tyr1068 phosphorylation); format: cell-based
Method: Transduced cells were selected using puromycin. Following selection, IL-3 was withdrawn and IL-3 independent cells cultured. p-EGFR Tyr1068 was determined using the AlphaScreen Surefire pEGF Receptor (Tyr1068) Assay (PerkinElmer, TGRERS). […] Subsequently, 60.000 cells/well in 60 μL were added. Cells were incubated with compound for 4 h at 37° C. […] The mixture was incubated at room temperature with shaking (700 rpm) for 20 min. After centrifugation, 4 μL of the lysate were transferred to Proxiplates. […] Plates were shaken for 1 min (1400 rpm) and incubated for 2 h at room temperature in the dark.
The results of the assay are provided as IC50 values (see table 12).

EGFR del19 T790M C797S protein in Ba/F3 cells, sequence (P00533 with tags, fused parts or gaps C797S/DEL746-750/T790M limits assumed): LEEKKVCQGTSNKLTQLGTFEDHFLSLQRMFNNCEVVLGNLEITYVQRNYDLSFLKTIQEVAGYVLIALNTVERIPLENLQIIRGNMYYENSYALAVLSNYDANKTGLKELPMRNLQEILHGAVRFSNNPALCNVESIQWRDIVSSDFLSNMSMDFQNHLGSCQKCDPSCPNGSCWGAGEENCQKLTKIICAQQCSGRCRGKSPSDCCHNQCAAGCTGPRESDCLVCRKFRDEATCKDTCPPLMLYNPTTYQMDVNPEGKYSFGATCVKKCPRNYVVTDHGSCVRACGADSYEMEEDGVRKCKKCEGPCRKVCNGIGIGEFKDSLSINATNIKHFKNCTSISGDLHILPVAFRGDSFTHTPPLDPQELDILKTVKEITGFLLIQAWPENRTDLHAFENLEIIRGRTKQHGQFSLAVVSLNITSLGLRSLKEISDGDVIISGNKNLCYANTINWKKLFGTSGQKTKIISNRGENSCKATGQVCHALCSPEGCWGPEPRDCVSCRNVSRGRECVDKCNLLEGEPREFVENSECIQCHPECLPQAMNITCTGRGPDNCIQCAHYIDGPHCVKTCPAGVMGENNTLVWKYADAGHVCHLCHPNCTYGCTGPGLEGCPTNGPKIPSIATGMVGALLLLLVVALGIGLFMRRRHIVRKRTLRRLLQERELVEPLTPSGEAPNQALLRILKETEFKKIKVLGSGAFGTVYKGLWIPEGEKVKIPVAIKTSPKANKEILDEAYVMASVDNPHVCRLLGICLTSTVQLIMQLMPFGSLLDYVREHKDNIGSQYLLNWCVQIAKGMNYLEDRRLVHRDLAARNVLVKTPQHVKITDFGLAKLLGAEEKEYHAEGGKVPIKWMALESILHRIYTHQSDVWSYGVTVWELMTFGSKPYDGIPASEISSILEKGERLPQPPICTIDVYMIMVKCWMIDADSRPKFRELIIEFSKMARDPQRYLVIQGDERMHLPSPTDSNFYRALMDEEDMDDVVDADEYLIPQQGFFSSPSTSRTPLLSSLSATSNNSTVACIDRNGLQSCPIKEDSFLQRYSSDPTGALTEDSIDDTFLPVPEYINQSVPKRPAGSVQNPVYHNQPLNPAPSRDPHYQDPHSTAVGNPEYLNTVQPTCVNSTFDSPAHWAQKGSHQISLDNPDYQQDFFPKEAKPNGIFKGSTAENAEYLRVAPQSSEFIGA

SMILES	IC50 [nM]
Cc1ccncc1-c1cc(C(=O)/N=c2\[nH]c3ccccc3n2CC(C)(C)O)ccn1 [I-016]	58
CC(C)(O)Cn1/c(=N/C(=O)c2ccnc(-c3cnccc3Cl)c2)[nH]c2ccccc21 [I-027]	55
CC(C)(O)Cn1/c(=N/C(=O)c2ccnc(-n3cnc4cccnc43)c2)[nH]c2ccccc21 [I-040]	3
CC(C)(O)Cn1/c(=N/C(=O)c2ccnc(-c3cnc4cccnn34)c2)[nH]c2ccccc21 [I-041]	1
Cn1cc(-c2cc(C(=O)/N=c3\[nH]c4ccccc4n3C3CCCOC3)ccn2)cn1 (stereo not drawn) [I-043]	6
Cc1c(-c2cc(C(=O)/N=c3\[nH]c4ccccc4n3C3CCCCC3)ccn2)cnn1C [I-044]	2
COCCN1CCC(c2ccc3c(c2)[nH]/c(=N\C(=O)c2ccnc(-c4cnn(C)c4C)c2)n3CC(C)(C)O)CC1 [I-045]	2
COCCN1CCC(c2ccc3c(c2)[nH]/c(=N\C(=O)c2ccnc(-c4cccnc4)c2)n3CC(C)(C)O)CC1 [I-046]	2
COCCN1CCC(c2ccc3c(c2)[nH]/c(=N\C(=O)c2ccnc(-c4cnn(C)c4)c2)n3CC(C)(C)O)CC1 [I-047]	3
Cn1cc(-c2cc(C(=O)/N=c3\[nH]c4ccccc4n3C3CCOCC3)ccn2)cn1 [I-049]	7
CC(C)(O)Cn1/c(=N/C(=O)c2ccnc(-c3ccsc3)c2)[nH]c2ccccc21 [I-050]	24
CC(C)(O)Cn1/c(=N/C(=O)c2ccnc(-c3cccs3)c2)[nH]c2ccccc21 [I-051]	27
Cn1cc(-c2cc(C(=O)/N=c3\[nH]c4cc(CN5CCCCC5)ccc4n3CC(C)(C)O)ccn2)cn1 [I-057]	27
Cn1cc(-c2cc(C(=O)/N=c3\[nH]c4cc(CN5CCOCC5)ccc4n3CC(C)(C)O)ccn2)cn1 [I-058]	93
COc1ccccc1-c1cc(C(=O)/N=c2\[nH]c3cc(CN4CCCCC4)ccc3n2CC(C)(C)O)ccn1 [I-059]	3
CCc1ccc2c(c1)[nH]/c(=N\C(=O)c1ccnc(-c3cnn(C)c3)c1)n2CC(C)(C)O [I-061]	7
CC(C)c1ccc2c(c1)[nH]/c(=N\C(=O)c1ccnc(-c3cnn(C)c3)c1)n2CC(C)(C)O [I-062]	9
Cn1cc(-c2cc(C(=O)/N=c3\[nH]c4cc(C(C)(C)O)ccc4n3CC(C)(C)O)ccn2)cn1 [I-063]	74
COCCN(C)c1ccc2c(c1)[nH]/c(=N\C(=O)c1ccnc(-c3cccnc3)c1)n2CC(C)(C)O [I-065]	30
CC(C)(O)Cn1/c(=N/C(=O)c2ccnc(-c3cccnc3)c2)[nH]c2cc(Cl)ccc21 [I-066]	23
CC(C)(O)Cn1/c(=N/C(=O)c2ccnc(-c3cccnc3)c2)[nH]c2cc(CO)ccc21 [I-067]	16
Cn1cc(-c2cc(C(=O)/N=c3\[nH]c4cc(NCC5CCOCC5)ccc4n3CC(C)(C)O)ccn2)cn1 [I-68]	14
Cc1cc2c(cc1N1CCN(C(C)C)CC1)[nH]/c(=N\C(=O)c1ccnc(-c3cnn(C)c3)c1)n2CC(C)(C)O [I-69]	26
Cc1cc2c(cc1N1CCCCC1)[nH]/c(=N\C(=O)c1ccnc(-c3cnn(C)c3)c1)n2CC(C)(C)O [I-70]	94

SMILES	IC50 [nM]
COCCCNc1cc2[nH]/c(=N\C(=O)c3ccnc(-c4cnn(C)c4)c3)n(CC(C)(C)O)c2cc1C [I-71]	86
C[C@@H]1CN(c2ccc3c(c2)[nH]/c(=N\C(=O)c2ccnc(-c4cnn(C)c4)c2)n3CC(C)(C)O)C[C@H](C)N1C [I-73]	81
Cn1cc(-c2cc(C(=O)/N=c3\[nH]c4cc(N5CCC6(CCOCC6)CC5)ccc4n3CC(C)(C)O)ccn2)cn1 [I-74]	71
Cn1cc(-c2cc(C(=O)/N=c3\[nH]c4cc(N5CCOC(C)(C)C5)ccc4n3CC(C)(C)O)ccn2)cn1 [I-75]	54
CC(C)(O)Cn1/c(=N/C(=O)c2ccnc(-c3cccnc3)c2)[nH]c2cc(N3CCCCC3)ccc21 [I-77]	76
CN(C)c1ccc2c(c1)[nH]/c(=N\C(=O)c1ccnc(-c3cccnc3)c1)n2CC(C)(C)O [I-79]	42
CN(C)C1CCN(c2ccc3c(c2)[nH]/c(=N\C(=O)c2ccnc(-c4cnn(C)c4)c2)n3CC(C)(C)O)C1 (stereo not drawn) [I-80]	89
Cn1cc(-c2cc(C(=O)/N=c3\[nH]c4cc(NC[C@@H]5CCCO5)ccc4n3CC(C)(C)O)ccn2)cn1 [I-81]	9
CN(C)CCNc1ccc2c(c1)[nH]/c(=N\C(=O)c1ccnc(-c3cnn(C)c3)c1)n2CC(C)(C)O [I-82]	14
Cn1cc(-c2cc(C(=O)/N=c3\[nH]c4cc(NCCN5CCCC5)ccc4n3CC(C)(C)O)ccn2)cn1 [I-83]	14
CCc1ccc2[nH]/c(=N\C(=O)c3ccnc(-c4cccnc4)c3)n(CC(C)(C)O)c2c1 [I-84]	21
Cn1cc(-c2cc(C(=O)/N=c3\[nH]c4cc(C5CCOCC5)ccc4n3CC(C)(C)O)ccn2)cn1 [I-85]	3
Cn1cc(-c2cc(C(=O)/N=c3\[nH]c4cc(C5CCOC5)ccc4n3CC(C)(C)O)ccn2)cn1 (stereo not drawn) [I-86]	5
CN(C)CCOCCNc1ccc2c(c1)[nH]/c(=N\C(=O)c1ccnc(-c3cnn(C)c3)c1)n2CC(C)(C)O [I-87]	81
Cn1ncc2c(-c3cc(C(=O)/N=c4\[nH]c5ccccc5n4CC(C)(C)O)ccn3)cccc21 [I-88]	11
O=C(/N=c1\[nH]c2ccccc2n1[C@H]1CC[C@@H](O)CC1)c1ccnc(-c2cccc3ccnn23)c1 [I-89]	8
CC(C)(O)Cn1/c(=N/C(=O)c2ccnc(-c3cccc4ccnn34)c2)[nH]c2ccccc21 [I-90]	12
COc1ncccc1-c1cc(C(=O)/N=c2\[nH]c3ccccc3n2CC(C)(C)O)ccn1 [I-92]	20
CN(C)c1cccc(-c2cc(C(=O)/N=c3\[nH]c4ccccc4n3CC(C)(C)O)ccn2)c1 [I-94]	99
Cn1cnc2c(-c3cc(C(=O)/N=c4\[nH]c5ccccc5n4CC(C)(C)O)ccn3)cccc21 [I-95]	74
O=C(/N=c1\[nH]c2ccccc2n1[C@H]1CC[C@@H](O)CC1)c1ccnc(-c2csc3ccccc23)c1 [I-96]	39
COc1ccccc1-c1cc(C(=O)/N=c2\[nH]c3ccccc3n2[C@H]2CCCC[C@@H]2O)ccn1 [I-97]	14
CC(C)(O)Cn1/c(=N/C(=O)c2ccnc(-c3cccc4ccoc34)c2)[nH]c2ccccc21 [I-98]	6
COc1cccc(-c2cc(C(=O)/N=c3\[nH]c4ccccc4n3CC(C)(C)O)ccn2)c1 [I-99]	42

SMILES	IC50 [nM]
CNC(=O)c1cccc(-c2cc(C(=O)/N=c3\[nH]c4ccccc4n3CC(C)(C)O)ccn2)c1 [I-100]	76
CN(C)C(=O)c1cccc(-c2cc(C(=O)/N=c3\[nH]c4ccccc4n3CC(C)(C)O)ccn2)c1 [I-103]	43
CC(C)(O)Cn1/c(=N/C(=O)c2ccnc(-c3cccc(O)c3)c2)[nH]c2ccccc21 [I-104]	12
CC(C)(O)Cn1/c(=N/C(=O)c2ccnc(-c3ccccn3)c2)[nH]c2ccccc21 [I-106]	97
CN(C)Cc1cccc(-c2cc(C(=O)/N=c3\[nH]c4ccccc4n3C3CCCCC3)ccn2)c1 [I-117]	12
COc1ccccc1-c1cc(C(=O)/N=c2\[nH]c3ccccc3n2[C@H]2CCC[C@H](O)C2)ccn1 [I-119]	3
COc1ccccc1-c1cc(C(=O)/N=c2\[nH]c3cc(C4CCNCC4)ccc3n2[C@H]2CC[C@@H](O)CC2)ccn1 [I-120]	3
COc1ccccc1-c1cc(C(=O)/N=c2\[nH]c3cc(C4CCN(C(C)=O)CC4)ccc3n2[C@H]2CC[C@@H](O)CC2)ccn1 [I-121]	2
COc1ccccc1-c1cc(C(=O)/N=c2\[nH]c3ccccc3n2[C@@H]2CCCOC2)ccn1 [I-122]	2
COc1ccccc1-c1cc(C(=O)/N=c2\[nH]c3ccccc3n2[C@H]2CCCOC2)ccn1 [I-123]	2
COc1ccccc1-c1cc(C(=O)/N=c2\[nH]c3cc(C4CCN(C)CC4)ccc3n2[C@H]2CC[C@@H](O)CC2)ccn1 [I-124]	2
O=C(/N=c1\[nH]c2ccccc2n1[C@H]1CC[C@@H](O)CC1)c1ccnc(-n2ccc3ccccc32)c1 [I-125]	11
COc1ccccc1-c1cc(C(=O)/N=c2\[nH]c3ccccc3n2[C@H]2CCC[C@@H](O)C2)ccn1 [I-127]	2
COc1ccccc1-c1cc(C(=O)/N=c2\[nH]c3ccccc3n2[C@@H]2CCC[C@H](O)C2)ccn1 [I-129]	5
CNC(=O)Cc1ccc2c(c1)[nH]/c(=N\C(=O)c1ccnc(-c3cccnc3)c1)n2CC(C)(C)O [I-131]	92
COc1ccccc1-c1cc(C(=O)/N=c2\[nH]c3ccccc3n2[C@@H]2CCCC[C@H]2O)ccn1 [I-132]	7
Cn1cc(-c2cc(C(=O)/N=c3\[nH]c4ccccc4n3[C@H]3CC[C@@H](O)CC3)cc(F)n2)cn1 [I-133]	1
Cc1ccc2c(c1)[nH]/c(=N\C(=O)c1ccnc(-c3cnn(C)c3)c1)n2[C@H]1CC[C@@H](O)CC1 [I-134]	1
COc1ccccc1-c1cc(C(=O)/N=c2\[nH]c3ccccc3n2[C@@H]2CCC[C@@H](O)C2)ccn1 [I-139]	2
COc1ccccc1-c1cc(C(=O)/N=c2\[nH]c3cc(CN4CC(OC)C4)ccc3n2[C@H]2CC[C@@H](O)CC2)ccn1 [I-140]	2
COc1ccccc1-c1cc(C(=O)/N=c2\[nH]c3cc(CN4CCOCC4)ccc3n2[C@H]2CC[C@@H](O)CC2)ccn1 [I-142]	3
COc1cnccc1-c1cc(C(=O)/N=c2\[nH]c3ccccc3n2[C@H]2CC[C@@H](O)CC2)ccn1 [I-147]	4
O=C(/N=c1\[nH]c2ccccc2n1[C@H]1CC[C@@H](O)CC1)c1ccnc(-n2ccc3cccnc32)c1 [I-150]	4
COc1ccccc1-c1cc(C(=O)/N=c2\[nH]c3cc(CN4CC[C@H](OC)C4)ccc3n2[C@H]2CC[C@@H](O)CC2)ccn1 [I-151]	4
